Results as given in patent publication US9040067B2, “Disinfecting and antimicrobial compositions” (priority 2005, dated 2015).

What was measured:
Assay type in all cases: cell-based
E. coli 0157;H7 = assay: MIC/MLC in brain heart infusion broth; also: key: + = growth (inactive); − = no growth (active)
Procedure: (§1) The tests were carried out in 10 ml of brain heart infusion broth. The esters were serially diluted in brain heart infusion broth of samples of, 0.1, 0.2, 0.3, 0.4 and 0.5/10 ml and challenged with 0.1 ml of 1/100 dilution of 24 hr old brain heart infusion bacterial culture. The lowest concentration determined the minimum inhibitory concentration (MIC). The samples were observed after 48 hrs at 37° C. A loopful from tubes without growth were plated on BHI agar plates and observed for growth for 24 to 48 hrs at 37° C. The samples with the lowest concentration of the ester without bacterial growth on the plates represented the minimum lethal concentration (MLC).
(§2) A series of samples of (a) methyl lactate, (b) ethyl lactate and (c) butyl lactate, alone, and in admixture with varying amounts of decyl lactate and sodium dodecyl sulfates were used to test minimum inhibitory activity (MIC) by the method described in Example II, against the cultures of E. coli 0157 H7, Listeria monocytogenes, Staphylococcus aureus, Salmonella typhi, and Pseudomonas aeruginosa.

Listeria monocytogenes = assay: MIC/MLC in brain heart infusion broth
Procedure: as §1, §2

Pseudomonas aeruginosa = assay: MIC/MLC in brain heart infusion broth; conditions: for MIC, Concentration of Lactic Esters 0.5%: 0.5% ester; for MIC, Concentration of Lactic Esters 1%: 1% ester; for MIC, Concentration of Lactic Esters 2%: 2% ester; for MIC, Concentration of Lactic Esters 3%: 3% ester; for MIC, Concentration of Lactic Esters 4%: 4% ester; for MIC, Concentration of Lactic Esters 5%: 5% ester; as to MIC, Concentration of Lactic Esters 0.5%: key: + = growth (inactive); − = no growth (active); as to MIC, Concentration of Lactic Esters 1%: key: + = growth (inactive); − = no growth (active); as to MIC, Concentration of Lactic Esters 2%: key: + = growth (inactive); − = no growth (active); as to MIC, Concentration of Lactic Esters 3%: key: + = growth (inactive); − = no growth (active); as to MIC, Concentration of Lactic Esters 4%: key: + = growth (inactive); − = no growth (active); as to MIC, Concentration of Lactic Esters 5%: key: + = growth (inactive); − = no growth (active)
Procedure: as §1, §2

Staphylococcus aureus = assay: MIC/MLC in brain heart infusion broth
Procedure: as §1, with “The esters were serially diluted in brain heart infusion broth of samples of, 0.1, 0.2, 0.3, 0.4 and 0.5/10 ml and challenged with 0.1 ml of 1/100 dilution of 24 hr old brain heart infusion bacterial culture.” left out
as §2

Salmonella typhimurium = assay: MIC/MLC in brain heart infusion broth
Procedure: as §1

Salmonella typhi = assay: MIC in brain heart infusion broth; conditions: Table 4; also: key: + = growth (inactive); − = no growth (active)
Procedure: as §1, §2

Saccharomyces cerevisiae = assay: MIC and MLC against yeast in Sab. broth; conditions: for Lethal (MLC) Concentration 1% / Inhibitory (MIC) Concentration 1%: 1% ester; for Lethal (MLC) Concentration 1.5% / Inhibitory (MIC) Concentration 1.5%: 1.5% ester; for Lethal (MLC) Concentration 2% / Inhibitory (MIC) Concentration 2%: 2% ester; for Lethal (MLC) Concentration 3% / Inhibitory (MIC) Concentration 3%: 3% ester; for Lethal (MLC) Concentration 4% / Inhibitory (MIC) Concentration 4%: 4% ester; as to Lethal (MLC) Concentration 1%: key: + = growth (inactive); − = no growth (active); as to Lethal (MLC) Concentration 1.5%: key: + = growth (inactive); − = no growth (active); as to Lethal (MLC) Concentration 2%: key: + = growth (inactive); − = no growth (active); as to Lethal (MLC) Concentration 3%: key: + = growth (inactive); − = no growth (active); as to Lethal (MLC) Concentration 4%: key: + = growth (inactive); − = no growth (active)
Procedure: A 0.1 ml of 1/100 dilution of 48 hr old culture of S. cerevisiae was used as inoculum. The test was performed using Sab. broth. The tubes were incubated at room temperature 25° C. The test was read after 48 hrs.

[1] = 1%, second MLC line of organism
[2] = 2%, second MLC line of organism
[3] = 3%, second MLC line of organism
[4] = 4%, second MLC line of organism
[5] = 5%, second MLC line of organism

## CCOC(=O)C(C)O (stereo not shown) [Ethyl lactate, ethyl lactate]
E. coli 0157;H7; first MLC line of organism
  MLC, Concentration of Ethyl lactate 0.5%: +
E. coli 0157;H7; second MLC line of organism
  MLC, Concentration of Ethyl lactate 0.5%: +
E. coli 0157;H7; 1%, Table 4
  MIC, growth at 1%: +
E. coli 0157;H7; 1%, first MLC line of organism
  MLC, Concentration of Ethyl lactate 1%: +
E. coli 0157;H7; [1]
  MLC, Concentration of Ethyl lactate 1%: +
E. coli 0157;H7; 2%, Table 4
  MIC, growth at 2%: +
E. coli 0157;H7; 2%, first MLC line of organism
  MLC, Concentration of Ethyl lactate 2%: −
E. coli 0157;H7; [2]
  MLC, Concentration of Ethyl lactate 2%: +
E. coli 0157;H7; 3%, Table 4
  MIC, growth at 3%: +
E. coli 0157;H7; 3%, first MLC line of organism
  MLC, Concentration of Ethyl lactate 3%: −
E. coli 0157;H7; [3]
  MLC, Concentration of Ethyl lactate 3%: −
E. coli 0157;H7; 4%, Table 4
  MIC, growth at 4%: −
E. coli 0157;H7; 4%, first MLC line of organism
  MLC, Concentration of Ethyl lactate 4%: −
E. coli 0157;H7; [4]
  MLC, Concentration of Ethyl lactate 4%: −
E. coli 0157;H7; 5%, Table 4
  MIC, growth at 5%: −
E. coli 0157;H7; 5%, first MLC line of organism
  MLC, Concentration of Ethyl lactate 5%: −
E. coli 0157;H7; [5]
  MLC, Concentration of Ethyl lactate 5%: −
Listeria monocytogenes; first MLC line of organism
  MLC, Concentration of Ethyl lactate 0.5%: +
Listeria monocytogenes; second MLC line of organism
  MLC, Concentration of Ethyl lactate 0.5%: +
Listeria monocytogenes; 1%, Table 4
  MIC, growth at 1%: +
Listeria monocytogenes; 1%, first MLC line of organism
  MLC, Concentration of Ethyl lactate 1%: +
Listeria monocytogenes; [1]
  MLC, Concentration of Ethyl lactate 1%: +
Listeria monocytogenes; 2%, Table 4
  MIC, growth at 2%: +
Listeria monocytogenes; 2%, first MLC line of organism
  MLC, Concentration of Ethyl lactate 2%: +
Listeria monocytogenes; [2]
  MLC, Concentration of Ethyl lactate 2%: +
Listeria monocytogenes; 3%, Table 4
  MIC, growth at 3%: +
Listeria monocytogenes; 3%, first MLC line of organism
  MLC, Concentration of Ethyl lactate 3%: +
Listeria monocytogenes; [3]
  MLC, Concentration of Ethyl lactate 3%: +
Listeria monocytogenes; 4%, Table 4
  MIC, growth at 4%: +
Listeria monocytogenes; 4%, first MLC line of organism
  MLC, Concentration of Ethyl lactate 4%: +
Listeria monocytogenes; [4]
  MLC, Concentration of Ethyl lactate 4%: +
Listeria monocytogenes; 5%, Table 4
  MIC, growth at 5%: +
Listeria monocytogenes; 5%, first MLC line of organism
  MLC, Concentration of Ethyl lactate 5%: +
Listeria monocytogenes; [5]
  MLC, Concentration of Ethyl lactate 5%: +
Pseudomonas aeruginosa; SDS 0.0 ppm
  MIC, Concentration of Lactic Esters 0.5%: +
  MIC, Concentration of Lactic Esters 1%: +
  MIC, Concentration of Lactic Esters 2%: −
  MIC, Concentration of Lactic Esters 3%: −
  MIC, Concentration of Lactic Esters 4%: −
  MIC, Concentration of Lactic Esters 5%: −
Pseudomonas aeruginosa; SDS 50 ppm
  MIC, Concentration of Lactic Esters 0.5%: −
  MIC, Concentration of Lactic Esters 1%: −
  MIC, Concentration of Lactic Esters 2%: −
  MIC, Concentration of Lactic Esters 3%: −
  MIC, Concentration of Lactic Esters 4%: −
  MIC, Concentration of Lactic Esters 5%: −
Pseudomonas aeruginosa; SDS 100 ppm
  MIC, Concentration of Lactic Esters 0.5%: −
  MIC, Concentration of Lactic Esters 1%: −
  MIC, Concentration of Lactic Esters 2%: −
  MIC, Concentration of Lactic Esters 3%: −
  MIC, Concentration of Lactic Esters 4%: −
  MIC, Concentration of Lactic Esters 5%: −
Pseudomonas aeruginosa; SDS 200 ppm
  MIC, Concentration of Lactic Esters 0.5%: −
  MIC, Concentration of Lactic Esters 1%: −
  MIC, Concentration of Lactic Esters 2%: −
  MIC, Concentration of Lactic Esters 3%: −
  MIC, Concentration of Lactic Esters 4%: −
  MIC, Concentration of Lactic Esters 5%: −
Pseudomonas aeruginosa; first MLC line of organism
  MLC, Concentration of Ethyl lactate 0.5%: +
  MLC, Concentration of Ethyl lactate 1%: +
  MLC, Concentration of Ethyl lactate 2%: −
  MLC, Concentration of Ethyl lactate 3%: −
  MLC, Concentration of Ethyl lactate 4%: −
  MLC, Concentration of Ethyl lactate 5%: −
Pseudomonas aeruginosa; second MLC line of organism
  MLC, Concentration of Ethyl lactate 0.5%: +
  MLC, Concentration of Ethyl lactate 1%: +
  MLC, Concentration of Ethyl lactate 2%: +
  MLC, Concentration of Ethyl lactate 3%: +
  MLC, Concentration of Ethyl lactate 4%: −
  MLC, Concentration of Ethyl lactate 5%: −
Staphylococcus aureus; first MLC line of organism
  MLC, Concentration of Ethyl lactate 0.5%: +
Staphylococcus aureus; second MLC line of organism
  MLC, Concentration of Ethyl lactate 0.5%: +
Staphylococcus aureus; 1%, Table 4
  MIC, growth at 1%: +
Staphylococcus aureus; 1%, first MLC line of organism
  MLC, Concentration of Ethyl lactate 1%: +
Staphylococcus aureus; [1]
  MLC, Concentration of Ethyl lactate 1%: +
Staphylococcus aureus; 2%, Table 4
  MIC, growth at 2%: +
Staphylococcus aureus; 2%, first MLC line of organism
  MLC, Concentration of Ethyl lactate 2%: +
Staphylococcus aureus; [2]
  MLC, Concentration of Ethyl lactate 2%: +
Staphylococcus aureus; 3%, Table 4
  MIC, growth at 3%: +
Staphylococcus aureus; 3%, first MLC line of organism
  MLC, Concentration of Ethyl lactate 3%: +
Staphylococcus aureus; [3]
  MLC, Concentration of Ethyl lactate 3%: +
Staphylococcus aureus; 4%, Table 4
  MIC, growth at 4%: +
Staphylococcus aureus; 4%, first MLC line of organism
  MLC, Concentration of Ethyl lactate 4%: +
Staphylococcus aureus; [4]
  MLC, Concentration of Ethyl lactate 4%: +
Staphylococcus aureus; 5%, Table 4
  MIC, growth at 5%: +
Staphylococcus aureus; 5%, first MLC line of organism
  MLC, Concentration of Ethyl lactate 5%: −
Staphylococcus aureus; [5]
  MLC, Concentration of Ethyl lactate 5%: +
Salmonella typhimurium; first MLC line of organism
  MLC, Concentration of Ethyl lactate 0.5%: +
  MLC, Concentration of Ethyl lactate 1%: +
  MLC, Concentration of Ethyl lactate 2%: +
  MLC, Concentration of Ethyl lactate 3%: +
  MLC, Concentration of Ethyl lactate 4%: −
  MLC, Concentration of Ethyl lactate 5%: −
Salmonella typhimurium; second MLC line of organism
  MLC, Concentration of Ethyl lactate 0.5%: +
  MLC, Concentration of Ethyl lactate 1%: +
  MLC, Concentration of Ethyl lactate 2%: +
  MLC, Concentration of Ethyl lactate 3%: +
  MLC, Concentration of Ethyl lactate 4%: +
  MLC, Concentration of Ethyl lactate 5%: +
Salmonella typhi; 1%
  MIC, growth at 1%: +
Salmonella typhi; 2%
  MIC, growth at 2%: +
Salmonella typhi; 3%
  MIC, growth at 3%: +
Salmonella typhi; 4%
  MIC, growth at 4%: −
Salmonella typhi; 5%
  MIC, growth at 5%: −
Saccharomyces cerevisiae
  Lethal (MLC) Concentration 1%: +
  Lethal (MLC) Concentration 1.5%: +
  Lethal (MLC) Concentration 2%: −
  Lethal (MLC) Concentration 3%: −
  Lethal (MLC) Concentration 4%: −
Saccharomyces cerevisiae; 48 hrs, 25° C
  Inhibitory (MIC) Concentration 1%: +
  Inhibitory (MIC) Concentration 1.5%: −
  Inhibitory (MIC) Concentration 2%: −
  Inhibitory (MIC) Concentration 3%: −
  Inhibitory (MIC) Concentration 4%: −
Saccharomyces cerevisiae; Sodium lauryl sulfate 200 ppm
  Inhibitory (MIC) Concentration 1%: +
  Lethal (MLC) Concentration 1%: +
  Inhibitory (MIC) Concentration 1.5%: −
  Lethal (MLC) Concentration 1.5%: +
  Inhibitory (MIC) Concentration 2%: −
  Lethal (MLC) Concentration 2%: −
  Inhibitory (MIC) Concentration 3%: −
  Lethal (MLC) Concentration 3%: −
  Inhibitory (MIC) Concentration 4%: −
  Lethal (MLC) Concentration 4%: −
